Data published in publication PMC6151588, “Four Prenylflavone Derivatives with Antiplasmodial Activities from the Stem of Tephrosia purpurea subsp. leptostachya” (Molecules : A Journal of Synthetic Chemistry and Natural …, 2017).
Entries after “also recorded” stand apart in the source; their conditions may differ. Where two headings read alike, the source gives them in different places.

Experiments:
[1] = tested on: chloroquine-sensitive D6 strain of Plasmodium falciparum; assay: In vitro antiplasmodial activity, non-radioactive (fluorescence-based) assay; type: cell-based; conditions: for Antiplasmodial activity in words: D6 strain of Plasmodium falciparum; for IC50: Plasmodium falciparum
Description: The pure compounds were assayed using a non-radioactive assay technique as described by […] al., 2004 [32] with modifications given in the literature.

[2] = MTT cytotoxicity assay, LO2; type: cell-based; conditions: human, LO2 cells (immortal hepatic cell line), non-tumoral cell
Description: (§1) A549, HepG2, and non-tumoral cells were all purchased from ATCC. Cells were cultured in RPMI 1640 medium supplemented with 10% fetal bovine serum and antibiotics penicillin (50 U/mL) and streptomycin (50 μg/mL; Invitrogen, Paisley, Scotland, UK). All cell cultures were incubated at 37 °C in a 5% humidified CO2 incubator. All tested compounds were dissolved in DMSO at a final concentration of 50 mmol/L and stored at −20 °C before use. Cytotoxicity was assessed by using the 3-(4,5-dimethylthiazol-2-yl)-2,5-diphenyltetrazolium bromide (MTT) (5.0 mg/mL) assay as previously described. Briefly, 4 × 10^3 cells per well were seeded in 96-well plates before drug treatments. After overnight culture, the cells were then exposed to different concentrations of selected compounds (0.039–100 μmol/L) for 72 h. Cells without drug treatment were used as the control. Subsequently, MTT (10 μL) solution was added to each well and incubated at 37 °C for 4 h followed by the addition of 100 μL solubilization buffer (10% SDS in 0.01 mol/L HCl) and overnight incubation. A570 nm was then determined in each well on the next day. The percentage of cell viability was calculated using the following formula: Cell viability (%) = Atreated/Acontrol × 100. Data were obtained from three independent experiments and the standard error was calculated.

[3] = MTT cytotoxicity assay, BEAS; type: cell-based; conditions: human, non-tumoral cell
Description: as §1

[4] = MTT cytotoxicity assay, A549; type: cell-based; conditions: human, A549 cells (adenocarcinomic alveolar basal epithelial cells), cancer cell
Description: as §1

[5] = MTT cytotoxicity assay, HepG2; type: cell-based; conditions: human, HepG2 cells (liver cancer cell line)
Description: as §1

[6] = MTT cytotoxicity, summary over the four cell-lines; type: cell-based; conditions: human, two non-tumoral and two cancerous cell-lines; read-out: Cytotoxicity IC50 against four cell-lines
Description: as §1

[7] = tested on: two non-tumoral and two cancerous cell-lines (LO2, BEAS, A549, HepG2); assay: MTT cytotoxicity, summary over the four cell-lines; type: cell-based
Description: as §1

[8] = D6 strain, in vitro, read-out: Antiplasmodial activity against P. falciparum D6, IC50

Structure (SMILES) | IC50 [1, 8] [µM] | melting point [°C] | IC50 ([1]; D6, read-out: Antiplasmodial activity against P. falciparum D6, IC50) [µM] | Antiplasmodial activity in words [1] | IC50 at 72 h [2] [µM] | IC50 at 72 h [3] [µM] | IC50 at 72 h [4] [µM] | IC50 at 72 h [5] [µM] | IC50 at 72 h [6] [µM] | Selectivity index ([7]; cytotoxicity versus antiplasmodial activity (D6)) | IC50 ([7]; two non-tumoral and two cancerous cell-lines, read-out: Cytotoxicity IC50 against four cell-lines) [µM]
CCN(CC)CCCC(C)Nc1ccnc2cc(Cl)ccc12 (stereo not drawn) [Chloroquine, reference compound] |  |  | 0.037 ± 0.003 |  |  |  |  |  |  |  | 
COc1cc(O)c2c(=O)cc(-c3ccccc3)oc2c1/C=C/C(C)(C)O [Compound 1, (E)-5-hydroxy-8-(3-hydroxy-3-methylbut-1-en-1-yl)-7-methoxy-2-phenyl-4H-chromen-4-one] | 1.7 ± 0.1 |  |  | good activity; also recorded: the most active | 21.7 ± 4.8 | 24.5 ± 2.7 | 76.1 ± 2.9 | > 100 | 21 to 100 | > 12 | > 21
COc1cc(O)c2c(=O)cc(-c3ccccc3)oc2c1/C=C/C(C)=O [Compound 2, (E)-5-hydroxy-7-methoxy-8-(3-oxobut-1-en-1-yl)-2-phenyl-4H-chromen-4-one] |  |  |  |  | > 100 | > 100 | > 100 | > 100 |  |  | 

Now from value to compound, other results behind:

IC50 [1, 8] [µM] | melting point [°C] | IC50 ([1]; D6, read-out: Antiplasmodial activity against P. falciparum D6, IC50) [µM] | Structure (SMILES) | Antiplasmodial activity in words [1] | IC50 at 72 h [2] [µM] | IC50 at 72 h [3] [µM] | IC50 at 72 h [4] [µM] | IC50 at 72 h [5] [µM] | IC50 at 72 h [6] [µM] | Selectivity index ([7]; cytotoxicity versus antiplasmodial activity (D6)) | IC50 ([7]; two non-tumoral and two cancerous cell-lines, read-out: Cytotoxicity IC50 against four cell-lines) [µM]
14.8 ± 3.2 | 210 to 214 |  | COc1cc(OC(C)=O)c(C2COC(C)(C)C2=O)c2oc(-c3ccccc3)cc(=O)c12 (stereo not drawn) [Compound 4, 8-(5,5-dimethyl-4-oxotetrahydrofuran-3-yl)-5-methoxy-4-oxo-2-phenyl-4H-chromen-7-yl acetate] | low antiplasmodial activities | > 100 | > 100 | > 100 | > 100 |  |  | 
27.1 ± 3.2 |  |  | COc1cc(OC)c2c(=O)cc(-c3ccccc3)oc2c1C1=COC(C)(C)C1=O [Compound 9, tachrosin] | low antiplasmodial activities | > 100 | > 100 | > 100 | > 100 |  |  | 
